Test results published in patent publication US20110195147A1, “IRON SOURCE PRODUCT IN THE FORM OF CAPSULES AND PROCESS FOR THEIR PREPARATION” (AB-BIOTICS S.A., priority 2008, published 2011).

Tested on: HELA cell line
Experiment: Capsule cytotoxicity, EZ4U cell proliferation and cytotoxicity assay
Conditions: for % Viability 24 h: 24 h incubation; for % Viability 72 h: 72 h incubation
Protocol: The test involved incubating cells from the HELA cell line with the substances against which the cytotoxicity was going to be tested, this test being commonly used as a way to check the toxicity. The tested compounds included the capsules, as well as their main constituents separately: the iron salt used in the capsules (ferric saccharate), and sodium alginate. A negative control, which contained HELA growth medium alone, was also prepared, and used as the reference growth.
The test media were prepared under sterile conditions. Capsules prepared as in Example 1 (Capsule 0; batch 2 of Example 3) were sterilised in an autoclave (20 min, 110° C.). Using sterile material, 72 mg of capsules (capsules medium), 17 mg of ferric saccharate (iron salt medium) and 18 mg of sodium alginate (alginate medium) were each dissolved in 50 mL of HELA growth medium. […] 1:1, 1:10 and 1:100 dilutions of each of the test media were prepared by diluting the following amounts of capsules, iron salt or alginate medium with fresh HELA growth medium: • 1:1 20 μL+0 μL fresh HELA medium • 1:10 2 μL+18 μL fresh HELA medium • 1:100 0.2 μL+19.8 μL fresh HELA medium
3500 HeLa cells were cultured in 36 wells of two 96 well plates: 9 control wells and 27 for triplicates of 3 concentrations of 3 products. Medium was added to each well up to 100 μL. The cells were incubated at 37° C. for 24 h. 20 μL of each test media and 80 μL of fresh medium were added to each well. In the controls only 100 μL of fresh medium were added. One of the plates was incubated for 24 h and the other one for 72 h. The viability of the cells was measured after 24 and 72 h of incubation using the EZ4U non-radioactive cell proliferation and cytotoxicity assay (Biomedica Medizinproducte GmbH).
The results were expressed as percentage of growth with respect to the controls, i. e. as the percentage of viability, which is computed as the number of living cells in any of the test solutions (capsules, ferric saccharate or sodium alginate) divided by the number of living cells in the negative control, and expressed as percentage.

Row | Substance | % Viability 24 h (dilution 1:1, relative to negative control) | % Viability 24 h (dilution 1:10) | % Viability 24 h (dilution 1:100) | % Viability 72 h (dilution 1:1) | % Viability 72 h (dilution 1:10) | % Viability 72 h (dilution 1:100) | cytotoxicity (in words)
1 | ferric saccharate [Iron salt] | 76.3% ± 9.7 | 101.7% ± 8.5 | 95.7% ± 3.2 | 66.8% ± 23.0 | 62.0% ± 15.7 | 68.7% ± 15.3 | 
2 | sodium alginate |  |  |  |  |  |  | No toxicity was observed
